In article PMC4707675 (ACS infectious diseases, 2015):
Values after ≈ are worked out from the molar mass of the structure shown. Values joined by “and” are separate entries in the source; they are usually repeats but may differ in a detail not shown here. Equal entries are not always repeated. Where two headings read alike, the source gives them in different places.

What was measured:
[1] = assay type: in vitro ADME
[2] = test system: intracellular Mtb growth in macrophages (THP-1 cells); assay: Intracellular assay of Mtb clearance in THP-1 cells; assay type: cell-based, Mycobacterium tuberculosis; conditions: Mtb in THP-1 cells
Mtb strain H37Rv [3] = assay type: cell-based, Mycobacterium tuberculosis
Mtb DHFR [4] = target: T1, Mtb DHFR (Mycobacterium tuberculosis, UniProt P9WNX1); assay type: biochemical; conditions: read-out: Enzyme IC50 Mtb; purified Mtb DHFR
T1 sequence (P9WNX1 whole entry): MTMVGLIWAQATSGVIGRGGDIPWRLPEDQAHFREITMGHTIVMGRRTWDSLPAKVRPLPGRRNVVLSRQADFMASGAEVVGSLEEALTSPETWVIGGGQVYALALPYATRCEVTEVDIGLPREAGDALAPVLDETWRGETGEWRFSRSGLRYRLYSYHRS

Mtb DHFR [5] = target: T1, Mtb DHFR; conditions: cited from earlier work; for inhibition of the Mtb DHFR enzyme: result in words
Mtb strain H37Rv [6] = conditions: cited from earlier work; for activity against live Mtb: result in words; for MIC90 wt: wild-type Mtb, ref Nixon et al.[15]
human DHFR = target: T2, human DHFR (Homo sapiens, UniProt P00374); assay: Biochemical assay of human DHFR; conditions: read-out: Enzyme IC50 Human; recombinant human DHFR
T2 sequence (P00374 1-187): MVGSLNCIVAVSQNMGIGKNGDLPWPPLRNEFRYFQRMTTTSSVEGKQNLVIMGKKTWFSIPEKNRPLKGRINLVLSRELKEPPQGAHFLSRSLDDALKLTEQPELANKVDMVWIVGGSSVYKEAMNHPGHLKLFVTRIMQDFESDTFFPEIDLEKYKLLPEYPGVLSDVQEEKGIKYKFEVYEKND

[7] = in vivo; cited from earlier work

Row | Compound | in vitro clearance in mouse microsomes [1] | MIC90 wt (Mtb strain H37Rv [3]) | Tox50 HepG2 (HepG2) | inhibition of the Mtb DHFR enzyme (Mtb DHFR [5]) | activity against live Mtb (Mtb strain H37Rv [6]) | further results
1 | N#Cc1ccc(Cn2ccc3c4c(N)nc(N)nc4ccc32)cc1 [PQD-1] | <0.5 mg/mL·g | 0.5 µM and 0.50 µM | 10 µM | – | – | intracell MIC90 [2]: 0.7 µM; IC50 (Mtb DHFR [4]): 10.1 nM
2 | CCc1nc(N)nc(N)c1-c1ccc(Cl)cc1 [pyrimethamine] | – | – | – | strong inhibition | poor or no activity | –
3 | COc1cc(NCc2ccc3nc(N)nc(N)c3c2C)cc(OC)c1OC [Trimetrexate] | – | – | – | strong inhibition | poor or no activity | MIC90 wt (Mtb strain H37Rv [6]): 6.3 µM (≈ 2.33 µg/mL); MIC90 wt (Mtb strain H37Rv [6]; listed as trimetrexate): 6.25 µM (≈ 2.31 µg/mL)
4 | CN(Cc1cnc2nc(N)nc(N)c2n1)c1ccc(C(=O)N[C@@H](CCC(=O)O)C(=O)O)cc1 [methotrexate] | – | – | – | – | poor or no activity | –
5 | CC1(C)N=C(N)N=C(N)N1OCCCOc1cc(Cl)c(Cl)cc1Cl [WR99210] | <0.5 mg/mL·g | 1 to 2 µM | 40 µM | – | – | IC50 (human DHFR): 9 nM; IC50 (Mtb DHFR [5]; read-out: Enzyme IC50 Mtb, ref Nixon et al.[15]): 14 nM; cell health: membrane permeability (HepG2 human hepatocytes): 19 µM; cell health: mitochondrial potential (HepG2 human hepatocytes): 25 µM; cell health: nuclear morphology (HepG2 human hepatocytes): 10 µM; toxicity in humans [7]: acute gastrointestinal toxicity
